Assay results: patent US6653342B2, “13-substituted milbemycin derivatives, their preparation and their use against insects and other pests” (Sankyo Company, Limited, priority 2000, dated 2003)
Where “and” joins values, the source holds several entries; their conditions need not be identical. Equal values may be shown once.

Key:
cat fleas [1] = assay: whole plant or invertebrate; type: in vivo; conditions: 1 ppm in bovine serum sucked through Parafilm at 37° C.; dead fleas after 48 hours; 20 fleas per group; corrected by control group
Protocol: A test container wherein the living space of fleas was isolated from bovine serum by use of Parafilm™ (obtainable from Aldrich Chemical Co. Ltd.), which is usually used as an artificial skin, was prepared. A compound to be tested was added to the bovine serum in an amount sufficient for its concentration to be 1 ppm, and the fleas were allowed to suck the serum sample through the Parafilm™ at 37° C. Each group consisted of 20 fleas. […] By counting the dead fleas in a control group without a test compound, the mortality was corrected.

cat fleas [2] = assay: Test on elimination of fleas from dogs (Test Examples 2 and 3); type: in vivo, Ctenocephalides felis; conditions: beagles
Protocol: Beagles provided for the test were infected with cat fleas prior to the commencement of the test. The number of fleas collected from the surface of the body of the dog three days after infection was counted and an infection ratio, calculated as the ratio of the fleas counted three days after infection to the initial number used to infect the dog, was determined for each dog.
The resulting test solution was administered dropwise to the interscapular region of each of four test beagles (4 to 7 months old) at a dose of 5 mg/kg body weight. On Day 7, Day 21 and Day 28 after administration of the test compound, each dog was infected with 100 cat fleas. The number of fleas collected from the surface of the bodies of the dogs three days after infection was counted. The number of fleas obtained before and after administration was determined to give an elimination ratio.
Thus, even 28 days after administration of the test compound, the elimination ratio was 100%.

[3] = tested on: roundworms (Toxocara canis); assay: Test on effect against roundworms in naturally infected dogs (Test Example 4); type: in vivo; conditions: dogs naturally infected with roundworm, one line per dog
Protocol: (§1) For each of these three parasites, the number of eggs per gram (EPG) of dog faeces excreted was measured before, and 7 to 9 days after, administration of the test compound. The number of worms excreted in the faeces of the dog (WEF) between administration of the test compound and the end of the test was measured. Upon completion of the test, each of the test dogs was subjected to post mortem to count the number of surviving worms in the digestive tract (SWDT).

[4] = tested on: hookworms (Ancylostoma caninum); assay: Test on effect against hookworms in naturally infected dogs (Test Example 5); type: in vivo; conditions: dogs naturally infected with hookworm, one line per dog
Protocol: as §1

[5] = tested on: whipworms (Trichuris vulpis); assay: Test on effect against whipworms in naturally infected dogs (Test Example 6); type: in vivo; conditions: dogs naturally infected with whipworm, one line per dog
Protocol: as §1

[6] = tested on: Perforating Scabies (Sarcoptes scabiei); assay: Test on effect against perforating scabies, naturally infected dog (Test Example 7); type: in vivo
Protocol: (§2) Dogs and cats naturally infected with scabies were provided for the test. […] This was administered at a rate of 5 mg/kg body weight to a test animal in its poll region. The epidermis was scraped off the test animal from its ears and limbs before administration and then three weeks after administration of the test compound. The epidermis thus obtained was then charged in a 10% potassium hydroxide solution and the number of worm bodies and eggs was observed microscopically.

[7] = tested on: Perforating Scabies (Sarcoptes scabiei); assay: Test on effect against perforating scabies, naturally infected cat (Test Example 7); type: in vivo
Protocol: as §2

[8] = tested on: Southern root-knot nematode; assay: Test on insecticidal effect against Southern root-knot nematode, cucumber on agar plate (Test Example 10); type: in vivo; conditions: 1000 ppm solution on filter paper disks
Protocol: An agar plate (80 ml: containing 1.25 ppm of kanamycin, 1.25 ppm of streptomycin and 0.8585 ppm of penicillin) was prepared in a container (70×70×20 mm). The plate was planted with a cucumber in the cotyledon stage of development. […] One of the thus-treated paper disks was put into the agar plate and two further treated paper disks were laid over the cotyledon.
After treatment, the container was covered with an acrylic plate to prevent water evaporation. Four days later, about 2.5 ml of a suspension containing 500 second-stage larvae of Southern root-knot nematode were added dropwise to the agar plate. Ten days after addition of the larvae, the number of galls of nematodes was estimated. Each test was conducted at a temperature of 25° C. and a humidity of 65%. “Untreated” in this test is a control in which water was used to soak the filter paper instead of the test compound solution.
The following criteria were used to judge the results obtained:
0: equal to the treatment-free group (51 to 150 galls)
1: slightly less than the treatment-free group (36 to 50 galls)
2: less than the treatment-free group (21 to 35 galls)
3: markedly less than the treatment-free group (0 to 20 galls)

microfilariae (mf) = assay: Test on activity against microfilariae in culture with or without neutrophils (Test Example 8); conditions: 37° C., 5% CO2, compared to broth containing mf only
[9] = 5 mg/kg dropwise to poll region
[10] = 5 mg/kg to poll region, epidermis scraped from ears and limbs, counted microscopically

With CCC1OC2(CCC1C)CC1CC(CC=C(C)C(OC(=O)C3(c4ccc(NC(=O)COC)cc4)CCCC3)C(C)C=CC=C3COC4C(O)C(C)=CC(C(=O)O1)C34O)O2 (stereo not drawn) [Example 1(c), 13-[1-(4-Methoxyacetylaminophenyl)cyclopentanecarbonyloxy]-5-hydroxy-milbemycin A4] the “Mortality (%)” value (cat fleas [1]) was 90.2%, the elimination ratio (cat fleas [2]; 5 mg/kg body weight dropwise to interscapular region (10% w/v solution), infected with 100 cat fleas 28 days after administration, counted three days after infection) was 100% and the “number of fleas collected from the surfaces of the bodies of the dogs three days after infection” value (cat fleas [2]; 5 mg/kg dropwise, infection with 100 cat fleas on each of Day 7, Day 21 and Day 28 after administration) was “no fleas were collected”. For the same compound, the “EPG after 7-9 Days” value ([3]; 5 mg/kg dropwise to poll region, eggs per gram of faeces) was 0 eggs per gram, the “WEF (number of worms excreted in the faeces)” value ([3]; 5 mg/kg dropwise, between administration and end of test, 5 mg/kg) was 3 and 5 and 8 and the “Elimination ratio (%)” value ([3]; 5 mg/kg dropwise) was 100%. For the same compound, the “SWDT (number of surviving worms in the digestive tract)” value (shortened to “SWDT”) ([3]; 5 mg/kg dropwise, post mortem) was 0, the “EPG after 7-9 Days” value [4, 9] was 0 eggs per gram and the “Elimination ratio (%)” value ([4]; 5 mg/kg dropwise) was 100%. For the same compound, the “SWDT” value ([4]; 5 mg/kg dropwise, post mortem) was 0, the “EPG after 7-9 Days” value [5, 9] was 0 eggs per gram and the “Elimination ratio (%)” value ([5]; 5 mg/kg dropwise) was 100%. For the same compound, the “SWDT” value ([5]; 5 mg/kg dropwise, post mortem) was 0, the “After administration (three weeks later) Egg” value [6, 10] was 0 and the “After administration (three weeks later) Worm body” value [6, 10] was 9. The oviposition of scabies ([6]; 5 mg/kg, after three weeks) was “prevented completely”, the “After administration (three weeks later) Egg” value [7, 10] was 0 and the “After administration (three weeks later) Worm body” value [7, 10] was 0. For the same compound, the effects against scabies ([7]; 5 mg/kg, after three weeks) was 100%, the oviposition preventing effects ([7]; 5 mg/kg, after three weeks) was 100% and the “Effect (result)” value ([8]; graded by number of galls ten days after addition of larvae) was 3 (markedly less than the treatment-free group (0 to 20 galls)). For the same compound, the Number of galls ([8]; ten days after addition of 500 second-stage larvae, 25° C., humidity 65%) was 6, the “Percentage reduction of microfilariae” value (microfilariae (mf); mf + neutrophils + test compound (100 ng/ml)) was 53.8% and the “Percentage reduction of microfilariae” value (microfilariae (mf); mf + test compound (100 ng/ml), no neutrophils) was 0.02%.
